Values after ≈ are worked out from the molar mass of the structure shown. Values belong to the compound of their own block, whether it stands above or below them.
What was measured:
Assay in all cases: MIC, CLSI broth microdilution
Assay type in all cases: cell-based
[1] = tested on: A. baumannii AABA1009 (Fluoroquinolone-resistant); conditions: for MIC: Acinetobacter baumannii, Table 2, read-out: MIC AABA 1009; for MIC AABA 1009: Table 2
Description: (§1) Minimum inhibitory concentrations (MIC) were determined by reference Clinical and Laboratory Standards Institute (CLSI) broth microdilution methods per M7-A7 [2006]. Quality control ranges utilizing E. coli ATCC 25922, P. aeruginosa ATCC 27853 and S. aureus ATCC 29213, and interpretive criteria for comparator agents were as published in CLSI M100-S17 [2007]. Briefly, serial two-fold dilutions of the test compounds were prepared at 2× concentration in Mueller Hinton Broth. The compound dilutions were mixed in 96-well assay plates in a 1:1 ratio with bacterial inoculum. The inoculum was prepared by suspension of a colony from an agar plate that was prepared the previous day. Bacteria were suspended in sterile saline and added to each assay plate to obtain a final concentration of 5×10^5 CFU/mL. The plates were incubated at 35° C. for 20 hours in ambient air.

[2] = tested on: A. baumannii AABA1065 (Fluoroquinolone-susceptible); conditions: for MIC: Acinetobacter baumannii, Table 2, read-out: MIC AABA 1065; for MIC AABA 1065: Table 2
Description: as §1

[3] = tested on: E. coli AECO001 (Fluoroquinolone susceptible, ATCC25922); conditions: Table 2, 35° C., 20 hours; for MIC: Escherichia coli, read-out: MIC AECO 001
Description: as §1

[4] = tested on: E. coli AECO066 (Fluoroquinolone-resistant); conditions: for MIC: Escherichia coli, Table 2, read-out: MIC AECO 066; for MIC AECO 066: Table 2
Description: as §1

[5] = tested on: P. aeruginosa APAE001 (Fluoroquinolone-susceptible, ATCC27853); conditions: for MIC: Pseudomonas aeruginosa, Table 2, read-out: MIC APAE 001; for MIC APAE 001: Table 2
Description: as §1

[6] = tested on: P. aeruginosa APAE054 (Fluoroquinolone-resistant); conditions: for MIC: Pseudomonas aeruginosa, Table 2, read-out: MIC APAE 054; for MIC APAE 054: Table 2
Description: as §1

[7] = tested on: S. aureus ASAU001 (Fluoroquinolone-susceptible, ATCC29213); conditions: for MIC: Staphylococcus aureus, Table 2, read-out: MIC ASAU 001; for MIC ASAU 001: Table 2
Description: as §1

[8] = tested on: S. aureus ASAU1031 (Fluoroquinolone-resistant); conditions: for MIC: Staphylococcus aureus, Table 2, read-out: MIC ASAU 1031; for MIC ASAU 1031: Table 2
Description: as §1

[9] = tested on: S. pneumoniae ASPN001 (Fluoroquinolone-susceptible, ATCC49619); conditions: for MIC: Streptococcus pneumoniae, Table 2, read-out: MIC ASPN 001; for MIC ASPN 001: Table 2
Description: as §1

[10] = tested on: S. pneumoniae ASPN1027 (Fluoroquinolone-resistant); conditions: for MIC: Streptococcus pneumoniae, Table 2, read-out: MIC ASPN 1027; for MIC ASPN 1027: Table 2
Description: as §1

SMILES: N[C@H]1CC2CCCc3c(c(F)cc4c(=O)c(C(=O)O)cn(C5CC5)c34)N2C1 (stereo partly drawn) [32/4]
MIC [1]: > 8 µg/mL
MIC [2]: > 8 µg/mL
MIC [3]: ≤ 1 µg/mL
MIC [4]: > 8 µg/mL
MIC [5]: 1 to 8 µg/mL (≈ 2.69 to 21.5 µM)
MIC [6]: > 8 µg/mL
MIC [7]: ≤ 1 µg/mL
MIC [8]: > 8 µg/mL
MIC [9]: ≤ 1 µg/mL
MIC [10]: 1 to 8 µg/mL (≈ 2.69 to 21.5 µM)

SMILES: N[C@H]1C[C@H]2CCOc3c(c(F)cc4c(=O)c(C(=O)O)cn(C5CC5)c34)N2C1 [32/2]
MIC [1]: > 8 µg/mL
MIC [2]: ≤ 1 µg/mL
MIC [3]: ≤ 1 µg/mL
MIC [4]: > 8 µg/mL
MIC [5]: ≤ 1 µg/mL
MIC [6]: > 8 µg/mL
MIC [7]: ≤ 1 µg/mL
MIC [8]: > 8 µg/mL
MIC [9]: ≤ 1 µg/mL
MIC [10]: > 8 µg/mL

SMILES: O=C(O)c1cn(C2CC2)c2c3c(c(F)cc2c1=O)N1C[C@H](O)C[C@H]1CC=C3 [18/6, (7aR,9R)-4-Cyclopropyl-12-fluoro-9-hydroxy-1-oxo-4,7,7a,8,9,10-hexahydro-1H-pyrrolo[1′,2′:1,7]azepino-[2,3-h]quinoline-2-carboxylic acid]
MIC AABA 1009 [1]: C (MIC's of greater than 8.0 μg/mL = C)
MIC AABA 1065 [2]: B (MIC's of greater than 1.0 μg/mL to 8.0 μg/mL = B)
MIC AECO 001 [3]: A (MIC's of 1.0 μg/mL or less = A)
MIC AECO 066 [4]: C (MIC's of greater than 8.0 μg/mL = C)
MIC APAE 001 [5]: C (MIC's of greater than 8.0 μg/mL = C)
MIC APAE 054 [6]: C (MIC's of greater than 8.0 μg/mL = C)
MIC ASAU 001 [7]: A (MIC's of 1.0 μg/mL or less = A)
MIC ASAU 1031 [8]: B (MIC's of greater than 1.0 μg/mL to 8.0 μg/mL = B)
MIC ASPN 001 [9]: A (MIC's of 1.0 μg/mL or less = A)
MIC ASPN 1027 [10]: C (MIC's of greater than 8.0 μg/mL = C)

SMILES: NCC1CCN2c3c(F)cc4c(=O)c(C(=O)O)cn(C5CC5)c4c3CCCC12.O=C(O)C(F)(F)F (racemic) [24/rac-17, (7aS*,8S*)-8-(Aminomethyl)-4-cyclopropyl-12-fluoro-1-oxo-4,5,6,7,7a,8,9,10-octahydro-1H-pyrrolo[1′,2′:1,7]-azepino[2,3-h]quinoline-2-carboxylic acid trifluoroacetate]
MIC AABA 1009 [1]: C (MIC's of greater than 8.0 μg/mL = C)
MIC AABA 1065 [2]: A (MIC's of 1.0 μg/mL or less = A)
MIC AECO 001 [3]: A (MIC's of 1.0 μg/mL or less = A)
MIC AECO 066 [4]: C (MIC's of greater than 8.0 μg/mL = C)
MIC APAE 001 [5]: B (MIC's of greater than 1.0 μg/mL to 8.0 μg/mL = B)
MIC APAE 054 [6]: C (MIC's of greater than 8.0 μg/mL = C)
MIC ASAU 001 [7]: A (MIC's of 1.0 μg/mL or less = A)
MIC ASAU 1031 [8]: B (MIC's of greater than 1.0 μg/mL to 8.0 μg/mL = B)
MIC ASPN 001 [9]: A (MIC's of 1.0 μg/mL or less = A)
MIC ASPN 1027 [10]: B (MIC's of greater than 1.0 μg/mL to 8.0 μg/mL = B)

SMILES: O=C(O)c1cn(C2CC2)c2c3c(c(F)cc2c1=O)N1C(=O)CC[C@H]1CCC3 [23/14, (7aR)-4-Cyclopropyl-12-fluoro-1,10-dioxo-4,5,6,7,7a,8,9,10-octahydro-1H-pyrrolo[1′,2′:1,7]azepino[2,3-h]quinoline-2-carboxylic acid]
MIC AABA 1009 [1]: C (MIC's of greater than 8.0 μg/mL = C)
MIC AABA 1065 [2]: C (MIC's of greater than 8.0 μg/mL = C)
MIC AECO 001 [3]: C (MIC's of greater than 8.0 μg/mL = C)
MIC AECO 066 [4]: C (MIC's of greater than 8.0 μg/mL = C)
MIC APAE 001 [5]: C (MIC's of greater than 8.0 μg/mL = C)
MIC APAE 054 [6]: C (MIC's of greater than 8.0 μg/mL = C)
MIC ASAU 001 [7]: C (MIC's of greater than 8.0 μg/mL = C)
MIC ASAU 1031 [8]: C (MIC's of greater than 8.0 μg/mL = C)
MIC ASPN 001 [9]: C (MIC's of greater than 8.0 μg/mL = C)
MIC ASPN 1027 [10]: C (MIC's of greater than 8.0 μg/mL = C)

SMILES: O=C(O)c1cn(C2CC2)c2c3c(c(F)cc2c1=O)N1CCCC1CC=C3 (stereo not drawn) [27/5, 4-Cyclopropyl-12-fluoro-1-oxo-4,7,7a,8,9,10-hexahydro-1H-pyrrolo[1′,2′:1,7]azepino[2,3-h]quinoline-2-carboxylic acid]
MIC AABA 1009 [1]: C (MIC's of greater than 8.0 μg/mL = C)
MIC AABA 1065 [2]: B (MIC's of greater than 1.0 μg/mL to 8.0 μg/mL = B)
MIC AECO 001 [3]: A (MIC's of 1.0 μg/mL or less = A)
MIC AECO 066 [4]: C (MIC's of greater than 8.0 μg/mL = C)
MIC APAE 001 [5]: C (MIC's of greater than 8.0 μg/mL = C)
MIC APAE 054 [6]: C (MIC's of greater than 8.0 μg/mL = C)
MIC ASAU 001 [7]: A (MIC's of 1.0 μg/mL or less = A)
MIC ASAU 1031 [8]: B (MIC's of greater than 1.0 μg/mL to 8.0 μg/mL = B)
MIC ASPN 001 [9]: A (MIC's of 1.0 μg/mL or less = A)
MIC ASPN 1027 [10]: C (MIC's of greater than 8.0 μg/mL = C)

Continued, in another order:

MIC AABA 1009 [1]: C (MIC's of greater than 8.0 μg/mL = C)
MIC AECO 066 [4]: C (MIC's of greater than 8.0 μg/mL = C)
MIC APAE 001 [5]: C (MIC's of greater than 8.0 μg/mL = C)
MIC APAE 054 [6]: C (MIC's of greater than 8.0 μg/mL = C)
MIC ASAU 1031 [8]: C (MIC's of greater than 8.0 μg/mL = C)
MIC ASPN 001 [9]: C (MIC's of greater than 8.0 μg/mL = C)
MIC ASPN 1027 [10]: C (MIC's of greater than 8.0 μg/mL = C)
SMILES: O=C(O)c1cn(C2CC2)c2c3c(c(F)cc2c1=O)N1CCCC1C[S+]([O-])C3 (stereo not drawn) [8/14, 13-Cyclopropyl-8-fluoro-10-oxo-3a,4,5,6,10,13-hexahydro-1H,3H-pyrrolo[2′,1′:3,4][1,4]thiazepino[5,6-h]quinoline-1′-carboxylic acid 2-oxide]
MIC AABA 1065 [2]: B (MIC's of greater than 1.0 μg/mL to 8.0 μg/mL = B)
MIC AECO 001 [3]: B (MIC's of greater than 1.0 μg/mL to 8.0 μg/mL = B)
MIC ASAU 001 [7]: B (MIC's of greater than 1.0 μg/mL to 8.0 μg/mL = B)

MIC AABA 1009 [1]: C (MIC's of greater than 8.0 μg/mL = C)
MIC AECO 066 [4]: C (MIC's of greater than 8.0 μg/mL = C)
MIC APAE 001 [5]: C (MIC's of greater than 8.0 μg/mL = C)
MIC APAE 054 [6]: C (MIC's of greater than 8.0 μg/mL = C)
MIC ASAU 001 [7]: A (MIC's of 1.0 μg/mL or less = A)
MIC ASAU 1031 [8]: C (MIC's of greater than 8.0 μg/mL = C)
MIC ASPN 001 [9]: C (MIC's of greater than 8.0 μg/mL = C)
MIC ASPN 1027 [10]: C (MIC's of greater than 8.0 μg/mL = C)
SMILES: O=C(O)c1cn(C2CC2)c2c3c(c(F)cc2c1=O)N1CCCC1CSC3 (stereo not drawn) [8/10, 13-Cyclopropyl-8-fluoro-10-oxo-3a,4,5,6,10,13-hexahydro-1H,3H-pyrrolo[2′,1′:3,4][1,4]thiazepino[5,6-h]quinoline-11-carboxylic acid]
MIC AABA 1065 [2]: B (MIC's of greater than 1.0 μg/mL to 8.0 μg/mL = B)
MIC AECO 001 [3]: B (MIC's of greater than 1.0 μg/mL to 8.0 μg/mL = B)

MIC AABA 1009 [1]: C (MIC's of greater than 8.0 μg/mL = C)
MIC AABA 1065 [2]: C (MIC's of greater than 8.0 μg/mL = C)
MIC AECO 066 [4]: C (MIC's of greater than 8.0 μg/mL = C)
MIC APAE 001 [5]: C (MIC's of greater than 8.0 μg/mL = C)
MIC APAE 054 [6]: C (MIC's of greater than 8.0 μg/mL = C)
MIC ASAU 001 [7]: C (MIC's of greater than 8.0 μg/mL = C)
MIC ASAU 1031 [8]: C (MIC's of greater than 8.0 μg/mL = C)
MIC ASPN 001 [9]: C (MIC's of greater than 8.0 μg/mL = C)
MIC ASPN 1027 [10]: C (MIC's of greater than 8.0 μg/mL = C)
SMILES: CC(=O)N1Cc2c(c(F)cc3c(=O)c(C(=O)O)cn(C4CC4)c23)N2CCCC2C1 (stereo not drawn) [14/4, 2-Acetyl-13-cyclopropyl-8-fluoro-10-oxo-2,3,3a,4,5,6,10,13-octahydro-1H-pyrrolo[2′,1′:3,4][1,4]diazepino[5,6-h]quinoline-11-carboxylic acid]
MIC AECO 001 [3]: B (MIC's of greater than 1.0 μg/mL to 8.0 μg/mL = B)

Source: patent US20120058989A1, “ANTIBACTERIAL FLUOROQUINOLONE ANALOGS” (Achaogen, Inc., priority 2008, published 2012)
